Molecules are shown by their SMILES.

Sequence of hTDO2 in human glioblastoma A172 cells (P48775 whole entry): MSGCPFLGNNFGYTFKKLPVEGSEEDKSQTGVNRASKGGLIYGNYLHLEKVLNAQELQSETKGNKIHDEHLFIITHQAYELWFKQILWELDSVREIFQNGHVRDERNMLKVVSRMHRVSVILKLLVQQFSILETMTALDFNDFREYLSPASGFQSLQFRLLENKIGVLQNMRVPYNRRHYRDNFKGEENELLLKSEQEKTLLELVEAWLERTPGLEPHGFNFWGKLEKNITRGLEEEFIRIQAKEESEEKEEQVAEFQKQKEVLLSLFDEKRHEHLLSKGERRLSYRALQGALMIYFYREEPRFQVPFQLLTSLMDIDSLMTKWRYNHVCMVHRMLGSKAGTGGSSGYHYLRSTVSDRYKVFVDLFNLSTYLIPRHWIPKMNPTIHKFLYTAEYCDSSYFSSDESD

This assay addresses hTDO2 in human glioblastoma A172 cells (Homo sapiens (Human), UniProt P48775). Briefly: Cellular assay for TDO2 activity determination in A172 cells. Type of assay: cell-based. As to conditions: overnight incubation, kynurenine absorbance at 480 nm. As for the experimental part: The compounds of formula I inhibit the activity of human TDO2 in cells that constitutively express TDO2, such as A172 cells. A172 is a cell line derived from human brain glioblastoma cells. The cells are available from the American Type Culture Collection (ATCC®) as CRL-1620™.
The assay (adapted from Pilotte L et al., Proc Natl Acad Sci USA, 2012, 109(7), 2497-502) was performed in 96-well flat bottom plates seeded with human glioblastoma A172 cells, naturally expressing hTDO2 (prepared as described in Tilman et al., Mol Cancer, 2007, 17(6), 80), at a concentration of 1.25×10^4 cells/well in a final volume of 200 μL. To determine TDO, the cells were incubated overnight at 37° C. at 5% CO2 in IMDM (Invitrogen) supplemented with 2% FBS and 2% penicillin/streptomycin in the presence of the compounds of the present invention, at different concentrations.
The plates were then centrifuged 5 min at 1000 rpm, and 100 μL of the supernatant were collected in a conical plate, 30 μL of TCA 30% were added and a further centrifuged at 3000×g for 10 minutes. 100 μL of the supernatant were collected in a flat bottomed plate and 100 μL of 2% (w/v) 4-(dimethylamino)-benzaldehyde in acetic acid and incubated for 5 min at room temperature. Kynurenine concentrations were determined by measuring the absorbance at 480 nm. A standard curve was made with pure kynurenine. The TDO activity was measured as described above using ten serial concentrations of the compounds of the present invention. Data were fitted using the Prism™ software (GraphPad Software, Inc.) using standard parameters.
One may read the IC50 as the midpoint of a concentration-inhibition curve. The low end stands for greater potency in that assay, the high end for weaker potency in that assay. For the compound `O=C(CCNS(=O)(=O)c1ccc(-c2c[nH]c3cc(F)ccc23)cc1)N[C@@H]1CCOC1` [Example 107, (+)-(R)-3-(4-(6-fluoro-1H-indol-3-yl)phenylsulfonamido)-N-(tetrahydrofuran-3-yl)propanamide], it took 160 nM to reach half-maximal inhibition (IC50).

Regarding `O=C(NCCNS(=O)(=O)c1ccc(-c2c[nH]c3cc(F)ccc23)cc1)N1CCOCC1` [Example 108, N-(2-(4-(6-fluoro-1H-indol-3-yl)phenylsulfonamido)ethyl)-morpholine 4-carboxamide], 170 nM corresponded to half-maximal inhibition (IC50).

`O=C(NCCNS(=O)(=O)c1ccc(-c2c[nH]c3cc(F)ccc23)cc1)N1CCNCC1` [Example 109, N-(2-(4-(6-fluoro-1H-indol-3-yl)phenylsulfonamido)ethyl) piperazine-1-carboxamide]: the IC50 is 1000 nM.

The compound `CN1CCN(C(=O)NCCNS(=O)(=O)c2ccc(-c3c[nH]c4cc(F)ccc34)cc2)CC1` [Example 110, N-(2-(4-(6-fluoro-1H-indol-3-yl)phenylsulfonamido)ethyl)-4-methylpiperazine-1-carboxamide] came in with an IC50 of 180 nM.

Compound `C[C@@H](O)[C@H](C)N(CCO)S(=O)(=O)c1ccc(-c2c[nH]c3cc(F)ccc23)cc1` [Example 111, 4-(6-fluoro-1H-indol-3-yl)-N-((2S,3R)-3-hydroxybutan-2-yl)-N-(2-hydroxyethyl)benzene sulfonamide] returned an IC50 of 146 nM.

With `O=S(=O)(c1ccc(-c2c[nH]c3cc(F)ccc23)cc1)N1CCOC[C@@H]1CO` [Example 112, (S)-(4-((4-(6-fluoro-1H-indol-3-yl)phenyl)sulfonyl)morpholin-3-yl)methanol], 116 nM corresponded to half-maximal inhibition (IC50).

`Cn1nccc1C1(O)CCN(S(=O)(=O)c2ccc(-c3c[nH]c4cc(F)ccc34)cc2)C1` (stereo not drawn) [Example 113, 1-((4-(6-fluoro-1H-indol-3-yl)phenyl)sulfonyl)-3-(1-methyl-1H-pyrazol-5-yl)pyrrolidin-3-ol] came in with an IC50 of 90500 nM. Compared with the last compound, the IC50 is about 780-fold higher.

Regarding `Cn1cc(CN(CCO)S(=O)(=O)c2ccc(-c3c[nH]c4cc(F)ccc34)cc2)cn1` [Example 114, 4-(6-fluoro-1H-indol-3-yl)-N-(2-hydroxyethyl)-N-((1-methyl-1H-pyrazol-4-yl)methyl) benzenesulfonamide], 91000 nM corresponded to half-maximal inhibition (IC50).

With `O=S(=O)(c1ccc(-c2c[nH]c3cc(F)ccc23)cc1)N1CCOC[C@H]1CO` [Example 115, (R)-(4-((4-(6-fluoro-1H-indol-3-yl)phenyl)sulfonyl)morpholin-3-yl)methanol], half-maximal inhibition (IC50) required 133 nM.

`C[C@]1(O)CCN(S(=O)(=O)c2ccc(-c3c[nH]c4cc(F)ccc34)cc2)C1` [Example 116, (S)-1-((4-(6-fluoro-1H-indol-3-yl)phenyl)sulfonyl)-3-methylpyrrolidin-3-ol] returned an IC50 of 92000 nM.

Regarding `O=S(=O)(c1ccc(-c2c[nH]c3cc(F)ccc23)cc1)N(CCO)CCCO` [Example 117, 4-(6-fluoro-1H-indol-3-yl)-N-(2-hydroxyethyl)-N-(3-hydroxypropyl)benzenesulfonamide], half-maximal inhibition (IC50) required 109 nM.

`O=S(=O)(c1ccc(-c2c[nH]c3cc(F)ccc23)cc1)N1CCOCC(O)C1` (stereo not drawn) [Example 118, 4-((4-(6-fluoro-1H-indol-3-yl)phenyl)sulfonyl)-1,4-oxazepan-6-ol]: the IC50 stood at 89 nM.

For `O=S(=O)(c1ccc(-c2c[nH]c3cc(F)ccc23)cc1)N1CCC(O)(c2ccncn2)C1` (stereo not drawn) [Example 119, 1-((4-(6-fluoro-1H-indol-3-yl)phenyl)sulfonyl)-3-(pyrimidin-4-yl)pyrrolidin-3-ol], the IC50 is 123 nM.

The compound `CN(CC(O)c1cccnn1)S(=O)(=O)c1ccc(-c2c[nH]c3cc(F)ccc23)cc1` (stereo not drawn) [Example 121, 4-(6-fluoro-1H-indol-3-yl)-N-(2-hydroxy-2-(pyridazin-3-yl)ethyl)-N-methylbenzene-sulfonamide] showed a 50% inhibitory concentration (IC50) of 156 nM.

For `Cc1nccn1CC1(O)CCCN(S(=O)(=O)c2ccc(-c3c[nH]c4cc(F)ccc34)cc2)C1` (stereo not drawn) [Example 122, 1-((4-(6-fluoro-1H-indol-3-yl)phenyl)sulfonyl)-3-((2-methyl-1H-imidazol-1-yl)methyl) piperidin-3-ol], inhibition was half-maximal at 86000 nM (IC50).

As to `O=S(=O)(c1ccc(-c2c[nH]c3cc(F)ccc23)cc1)N1C[C@@H](F)C[C@H]1CO` [Example 123, ((2S,4S)-4-fluoro-1-((4-(6-fluoro-1H-indol-3-yl)phenyl)sulfonyl)pyrrolidin-2-yl)methanol], the IC50 worked out at 138 nM.

The compound `O=S(=O)(c1ccc(-c2c[nH]c3cc(F)ccc23)cc1)N1CCC(O)C1` (stereo not drawn) [Example 124, 1-((4-(6-fluoro-1H-indol-3-yl)phenyl)sulfonyl) pyrrolidin-3-ol] yielded an IC50 of 93500 nM.

Take `O=S(=O)(c1ccc(-c2c[nH]c3cc(F)ccc23)cc1)N1C[C@H](F)C[C@@H]1CO` [Example 125, ((2R,4R)-4-fluoro-1-((4-(6-fluoro-1H-indol-3-yl)phenyl)sulfonyl)pyrrolidin-2-yl)methanol]: the IC50 worked out at 97 nM.

`O=S(=O)(c1ccc(-c2c[nH]c3cc(F)ccc23)cc1)N1C[C@@H](F)C[C@@H]1CO` [Example 126, ((2R,4S)-4-fluoro-1-((4-(6-fluoro-1H-indol-3-yl)phenyl)sulfonyl)pyrrolidin-2-yl)methanol] registered an IC50 of 145 nM.

Compound `O=C1CCCN1CC1(O)CCN(S(=O)(=O)c2ccc(-c3c[nH]c4cc(F)ccc34)cc2)C1` (stereo not drawn) [Example 127, 1-((1-((4-(6-fluoro-1H-indol-3-yl)phenyl)sulfonyl)-3-hydroxypyrrolidin-3-yl)methyl)pyrrolidin-2-one] returned an IC50 of 85500 nM.

In the case of `O=S(=O)(c1ccc(-c2c[nH]c3cc(F)ccc23)cc1)N1CC[C@@H](O)[C@@H](O)C1` [Example 128, (3S,4R)-1-((4-(6-fluoro-1H-indol-3-yl)phenyl)sulfonyl)piperidine-3,4-diol], half-maximal inhibition (IC50) was put at 93500 nM.

Regarding `O=S(=O)(c1ccc(-c2c[nH]c3cc(F)ccc23)cc1)N1C[C@H](F)[C@@H](O)[C@H](O)[C@H]1CO` [Example 129, (2R,3R,4S,5S)-5-f1uoro-1-((4-(6-fluoro-1H-indol-3-yl)phenyl)sulfonyl)-2-(hydroxymethyl) piperidine-3,4-diol], the IC50 stood at 92000 nM.

Consider `O=S(=O)(c1ccc(-c2c[nH]c3cc(F)ccc23)cc1)N1CC[C@@H](O)[C@H](O)C1` [Example 130, (3R,4R)-1-((4-(6-fluoro-1H-indol-3-yl)phenyl)sulfonyl)piperidine-3,4-diol], for which half-maximal inhibition (IC50) was put at 96 nM.

For `Cc1nccn1CC1(O)CCN(S(=O)(=O)c2ccc(-c3c[nH]c4cc(F)ccc34)cc2)C1` (stereo not drawn) [Example 131, 1-((4-(6-fluoro-1H-indol-3-yl)phenyl)sulfonyl)-3-((2-methyl-1H-imidazol-1-yl)methyl)pyrrolidin-3-ol], the midpoint of inhibition, the IC50, lay at 90000 nM.

`O=C1CCCN1CC1(O)CCCN(S(=O)(=O)c2ccc(-c3c[nH]c4cc(F)ccc34)cc2)C1` (stereo not drawn) [Example 132, 1-((1-((4-(6-fluoro-1H-indol-3-yl)phenyl)sulfonyl)-3-hydroxypiperidin-3-yl)methyl)pyrrolidin-2-one] had an IC50 of 83000 nM.

`CN(CC(O)c1ncc[nH]1)S(=O)(=O)c1ccc(-c2c[nH]c3cc(F)ccc23)cc1` (stereo not drawn) [Example 133, 4-(6-fluoro-1H-indol-3-yl)-N-(2-hydroxy-2-(1H-imidazol-2-yl)ethyl)-N-methylbenzene-sulfonamide] gave an IC50 of 169 nM.

`O=S(=O)(c1ccc(-c2c[nH]c3cc(F)ccc23)cc1)N1C[C@H](O)[C@@H](O)[C@@H]1CO` [Example 134, (2S,3S,4S)-1-((4-(6-fluoro-1H-indol-3-yl)phenyl)sulfonyl)-2-(hydroxymethyl) pyrrolidine-3,4-diol] yielded an IC50 of 125 nM.

Compound `CN(CC(O)c1cnccn1)S(=O)(=O)c1ccc(-c2c[nH]c3cc(F)ccc23)cc1` (stereo not drawn) [Example 135, 4-(6-fluoro-1H-indol-3-yl)-N-(2-hydroxy-2-(pyrazin-2-yl)ethyl)-N-methylbenzene-sulfonamide] had an IC50 of 161 nM.

Turning to `NS(=O)(=O)c1ccc(-c2c[nH]c3cc(F)ccc23)c(Cl)c1` [Example 136, 3-chloro-4-(6-fluoro-1H-indol-3-yl) benzenesulfonamide], the IC50 is 271 nM. Compared with the last compound, the IC50 is about 1.7-fold higher.

For the compound `NS(=O)(=O)c1cc(Cl)c(-c2c[nH]c3cc(F)ccc23)c(Cl)c1` [Example 137, 3,5-dichloro-4-(6-fluoro-H-indol-3-yl)-benzenesulfonamide], the IC50 was found to be 7510 nM.

Regarding `CN(C)C(=O)Cc1cc(-c2c[nH]c3cc(F)ccc23)ccc1S(N)(=O)=O` [Example 138, 2-(5-(6-fluoro-1H-indol-3-yl)-2-sulfamoylphenyl)-N,N-dimethylacetamide], the IC50 was 3160 nM.

The compound `NS(=O)(=O)c1ccc(-c2c[nH]c3cc(F)ccc23)cc1CCO` [Example 139, 4-(6-fluoro-1H-indol-3-yl)-2-(2-hydroxyethyl)-benzenesulfonamide] showed a half-maximal inhibitory concentration (IC50) of 120 nM.

Compound `CNCCc1cc(-c2c[nH]c3cc(F)ccc23)ccc1S(N)(=O)=O` [Example 140, 4-(6-fluoro-1H-indol-3-yl)-2-(2-(methylamino)ethyl)-benzenesulfonamide] had an IC50 of 541 nM.

These data come from US10544095B2 (Pfizer Inc., priority 2015, dated 2020).
